Patent publication US20250034216A1, “STEREOSELECTIVE COVALENT LIGANDS FOR ONCOGENIC AND IMMUNOLOGICAL PROTEINS” (The Scripps Research Institute, priority 2021, published 2025)

How the values were obtained:
Assay in all cases: IA-DTB cysteine engagement
Assay type in all cases: binding
Settings in all cases: 22Rv1 cells, 20 μM probe, 1 h, relative to DMSO
[1] = molecular target: T1, ANKRD46_C61 (Homo sapiens, UniProt Q86W74)
T1 construct: endogenous in cells; host or cells: 22Rv1
T1 sequence (Q86W74 1-228): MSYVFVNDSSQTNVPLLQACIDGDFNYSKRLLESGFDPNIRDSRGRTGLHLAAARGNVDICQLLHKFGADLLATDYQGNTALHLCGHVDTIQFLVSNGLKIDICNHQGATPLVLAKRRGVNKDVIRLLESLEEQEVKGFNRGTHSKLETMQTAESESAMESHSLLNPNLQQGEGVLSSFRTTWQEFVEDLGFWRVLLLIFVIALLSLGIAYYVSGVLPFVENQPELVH
In short: (§1)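 First, cells are exposed to electrophilic probes in situ. Next, lysates are labeled with IA-DTB (1 h, ambient temperature), reduced, alkylated and trypsin-digested. Then, IA-DTB peptides are enriched on streptavidin, TMT-labeled and analyzed, with ratios taken against DMSO channels.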

[2] = molecular target: T2, GNPAT_C122 (Homo sapiens, UniProt O15228)
T2 construct: endogenous in cells; host or cells: 22Rv1
T2 sequence (O15228 1-680): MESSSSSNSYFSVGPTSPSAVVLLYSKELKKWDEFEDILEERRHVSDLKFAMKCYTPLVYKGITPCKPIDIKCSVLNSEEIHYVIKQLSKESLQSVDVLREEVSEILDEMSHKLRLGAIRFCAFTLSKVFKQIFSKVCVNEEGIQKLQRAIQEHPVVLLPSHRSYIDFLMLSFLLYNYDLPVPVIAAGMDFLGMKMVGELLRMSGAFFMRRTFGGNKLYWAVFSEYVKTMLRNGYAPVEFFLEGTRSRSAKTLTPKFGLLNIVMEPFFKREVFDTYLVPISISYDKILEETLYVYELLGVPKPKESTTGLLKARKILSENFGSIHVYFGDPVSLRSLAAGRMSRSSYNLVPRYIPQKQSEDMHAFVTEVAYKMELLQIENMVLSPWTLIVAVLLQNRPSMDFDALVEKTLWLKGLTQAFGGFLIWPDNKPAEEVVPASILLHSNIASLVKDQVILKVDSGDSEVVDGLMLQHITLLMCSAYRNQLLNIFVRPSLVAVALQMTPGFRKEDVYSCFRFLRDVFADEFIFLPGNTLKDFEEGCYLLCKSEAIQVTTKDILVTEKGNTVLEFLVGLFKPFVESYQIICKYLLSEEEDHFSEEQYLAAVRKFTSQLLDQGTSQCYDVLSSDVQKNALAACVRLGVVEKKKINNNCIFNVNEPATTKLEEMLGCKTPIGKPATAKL
In short: as §1

[3] = molecular target: T3, HNRNPLL_C235 (Homo sapiens, UniProt Q8WVV9)
T3 construct: endogenous in cells; host or cells: 22Rv1
T3 sequence (Q8WVV9 1-542): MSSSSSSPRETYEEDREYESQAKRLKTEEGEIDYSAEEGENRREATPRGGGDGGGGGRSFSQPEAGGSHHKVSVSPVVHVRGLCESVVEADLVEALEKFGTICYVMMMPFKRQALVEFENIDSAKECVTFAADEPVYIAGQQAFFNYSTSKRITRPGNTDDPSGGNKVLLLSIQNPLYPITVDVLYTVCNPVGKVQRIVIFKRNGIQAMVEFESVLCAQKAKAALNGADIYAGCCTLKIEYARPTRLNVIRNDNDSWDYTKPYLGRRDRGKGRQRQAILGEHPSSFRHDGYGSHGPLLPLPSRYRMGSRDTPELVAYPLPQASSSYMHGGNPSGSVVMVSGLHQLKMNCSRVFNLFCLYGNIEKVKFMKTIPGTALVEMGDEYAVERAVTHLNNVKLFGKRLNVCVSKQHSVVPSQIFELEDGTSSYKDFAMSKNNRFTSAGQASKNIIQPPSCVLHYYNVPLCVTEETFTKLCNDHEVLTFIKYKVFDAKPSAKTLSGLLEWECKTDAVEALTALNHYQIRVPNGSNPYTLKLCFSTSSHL
In short: as §1

SMILES: C=CC(=O)N1C[C@H](c2ccc(Br)cc2)[C@@H]1C(=O)Nc1cccc2cccnc12 [MY-1B, (2R,3S)-1-acryloyl-3-(4-bromophenyl)-N-(quinolin-8-yl)azetidine-2-carboxamide]
- % engagement ANKRD46_C61 [1]: 28.5%
- % engagement GNPAT_C122 [2]: 74.5%
- % engagement HNRNPLL_C235 [3]: 34%

SMILES: C=CC(=O)N1C[C@H](c2ccc(Br)cc2)[C@H]1C(=O)Nc1cccc2cccnc12 [MY-3B, (2S,3S)-1-acryloyl-3-(4-bromophenyl)-N-(quinolin-8-yl)azetidine-2-carboxamide]
- % engagement ANKRD46_C61 [1]: 66.5%
- % engagement GNPAT_C122 [2]: 51.5%
- % engagement HNRNPLL_C235 [3]: 75%

SMILES: C=CC(=O)N1C[C@H](c2ccc(Br)cc2)[C@H]1C(=O)Nc1cccc2cccnc12 [MY-3A, (2S,3S)-1-acryloyl-3-(4-bromophenyl)-N-(quinolin-8-yl)azetidine-2-carboxamide]
- % engagement ANKRD46_C61 [1]: 5.5%
- % engagement GNPAT_C122 [2]: 35.5%
- % engagement HNRNPLL_C235 [3]: −7.5%

SMILES: C=CC(=O)N1C[C@@H](c2ccc(Br)cc2)[C@H]1C(=O)Nc1cccc2cccnc12 [MY-1A, (2S,3R)-1-acryloyl-3-(4-bromophenyl)-N-(quinolin-8-yl)azetidine-2-carboxamide]
- % engagement ANKRD46_C61 [1]: 17.5%
- % engagement GNPAT_C122 [2]: 70.5%
- % engagement HNRNPLL_C235 [3]: 15%
